How the values were obtained:
[1] = test system: leukemic cells L 1210; set-up: species or system mice; details: mouse, in vivo
[2] = test system: larvae of schistosoma mansoni; assay: Release of 51 chromium from larvae of schistosoma mansoni, cytotoxicity in vivo; details: macrophages of the rat stimulated in vivo
Source text: The depsipeptide from Fusarium equiseti has been tested to determine its action in vivo on the cytotoxicity induced in the intraperitoneal macrophages of the rat against the larvae of schistosoma mansoni.
The macrophages are stimulated either in vitro or in vivo and are contacted with a suspension of larvae of schistosoma mansoni previously tagged with 51 chromium.
This measure reflects the significance of cellular lesions on the surface of the schistosomules. The radio activity released in the medium is expressed as a percentage of the total radio-activity present in the schistosomules at the beginning of the experiments.

[3] = test system: peritoneal macrophages from unstimulated rats (Fisher strain); assay: Stimulation of the activities of the macrophages, cultivated with the substance; format: cell-based; details: 16 hours incubation
Procedure: The peritoneal macrophages from unstimulated rats (Fisher strain) are prelevated through peritoneal washing and isolation on plastic rack. They are cultivated for a night with dosages of the depsipeptide ranging from 1 picogramm to 1 nanogramm/ml.
The content in proteins, in lysosomal β-glucoronidase, and in cytoplasmic leucine-amino peptidase are determined on the cells previously lysed with 0.05% Triton X-100.
In the same manner, incubation has also been performed with a solution of lipopolysaccharide from Escherichia coli and Muramyldipeptide as reference substances.
Amounts of cellular enzymes and proteins in the macrophages after 16 hours incubation.
The content in proteins is expressed in g/10^6 cells and that in β-glucuronidase in mMol of substrate hydrolysed by 10^6 cells per hour.

[4] = 1 ng/ml (row printed after the first 100 ng/ml)
[5] = 10 ng/ml (second row so printed)
[6] = 100 ng/ml (second row so printed, last row)

SMILES: O=P1(N(CCCl)CCCl)NCCCO1 (stereo not drawn) [Cyclophosphamide]
- survival time [1]: extends in a statiscally significative manner

SMILES: CC(=O)N[C@@H]1[C@@H](O[C@H](C)C(=O)N[C@@H](C)C(=O)N[C@H](CCC(=O)O)C(N)=O)[C@H](O)[C@@H](CO)O[C@H]1O [Muramyldipeptide]
- release of 51 Cr (change) ([2]; 1 g): +6%
- release of 51 Cr (change) ([2]; 100 g): +10%
- Proteins ([3]; 1 pg/ml): 46,1 ± 2,2 g/10^6 cells
- β-glucuronidase ([3]; 1 pg/ml): 36,5 ± 0,1 mMol of substrate hydrolysed b
- Proteins ([3]; 10 pg/ml): 44,8 ± 0,7 g/10^6 cells
- β-glucuronidase ([3]; 10 pg/ml): 36,3 ± 6,4 mMol of substrate hydrolysed b
- Proteins ([3]; 100 pg/ml): 44,6 ± 1,9 g/10^6 cells
- β-glucuronidase ([3]; 100 pg/ml): 41,0 ± 2,9 mMol of substrate hydrolysed b
- Proteins [3, 4]: 45,1 ± 0,9 g/10^6 cells
- β-glucuronidase [3, 4]: 30,6 ± 3,8 mMol of substrate hydrolysed b
- Proteins ([3]; 1 ng): 44,0 ± 1,8 g/10^6 cells
- β-glucuronidase ([3]; 1 ng): 34,0 ± 5,3 mMol of substrate hydrolysed b
- Proteins [3, 5]: 48,1 ± 1,8 g/10^6 cells
- β-glucuronidase [3, 5]: 32,2 ± 3,0 mMol of substrate hydrolysed b
- Proteins ([3]; 10 ng/ml): 43,4 ± 1,8 g/10^6 cells
- β-glucuronidase ([3]; 10 ng/ml): 39,6 ± 6,1 mMol of substrate hydrolysed b
- Proteins [3, 6]: 55,3 ± 3,1 g/10^6 cells
- β-glucuronidase [3, 6]: 39,0 ± 1,6 mMol of substrate hydrolysed b
- Proteins ([3]; 100 ng/ml): 40,5 ± 0,7 g/10^6 cells
- β-glucuronidase ([3]; 100 ng/ml): 23,9 ± 6,2 mMol of substrate hydrolysed b
